Data set [1] concerns E. coli DNA ligase, E. coli DNA polymerase I, E. coli RNaseH. Put plainly: Double-stranded cDNA synthesis (Gubler-Hoffman method) on cDNA/RNA hybrid adsorbed to streptavidin beads. It counts as biochemical. The following applies: 0.6 M trehalose, 3 hours at 16° C. Here is the method:
RNA was reverse transcribed with Unique oligo-dT having various restriction enzyme sites. The cDNA/RNA hybrids obtained were used while still adsorbed to the beads to conduct a double-strand synthesis reaction by the Gubler-Hoffman method as set forth below.
A 15 ug quantity of 5′ end biotin-labeled primer (Seq. ID No. 3) for reverse transcription was employed for 12 ug of total RNA (mouse embryo, 17.5, female). Reverse transcription reaction solution (1× GC buffer (Takara), 0.3 mM dNTP mix, saturated sorbitol/trehalose solution 30 uL, M-MLV 3,000 units) was added α[32P]dGTP was added, and the mixture was reacted for 30 minutes at 42° C., 10 minutes at 50° C., and 10 minutes at 56° C. Following reaction with proteinase K, the mixture was precipitated from CTAB/urea and redissolved in 7 M Gu-HCl. EtOH precipitation was then conducted. […]
Streptavidin beads on which was adsorbed cDNA/RNA hybrid were washed once with double-stranded synthesis-use reaction buffer ([…], Invitrogen). […] The mixture was washed three times with 1× binding buffer and measured with a liquid scintillation counter. The synthesis rate of double-stranded cDNA and the yield were calculated (Scheme 1).

The subject of data set [2] is λ phage cDNA library. Put plainly: Preparation of a λ phage cDNA library, titer from plaques. The settings on record: samples prepared under trehalose (+) 0.6 M vs trehalose (−). Here is the method:
Double-stranded cDNA/RNA hybrid samples that had been immobilized on streptoavidin beads and synthesized under trehalose (+) and trehalose (−) conditions were employed to prepare a λ phage cDNA library. Following synthesis of double-stranded cDNA, the beads were washed with blunting buffer (T4 DNA polymerase buffer). Blunting reaction solution (1× T4 DNA polymerase buffer, 0.6 M trehalose, 0.1 mM dNTP mix, T4 DNA polymerase 5 units) was added and the mixture was incubated for 20 minutes at 12° C. Following the reaction, the beads were washed three times with 0.1× TE, and then washed one more time with 1× ligation buffer. Ligation reaction solution (1× T4 DNA ligation buffer, 0.6 M trehalose, 5′ end BamHI overhang adapter 2 ug, T4 DNA ligase 800 units) was added and the mixture was reacted overnight at 16° C. The beads were washed three times with 0.1× TE and then washed once with 1× XhoI. Restriction enzyme XhoI reaction solution (1× XhoI buffer, 0.6 M trehalose, XhoI 40 units) was added and the mixture was incubated for three hours at 37° C. The beads were recovered with a magnetic stand and the supernatant containing the cDNA that had been released by XhoI cutting was separated. […] A 10 uL quantity and a 100 uL quantity were admixed to the C600/MgSO4 suspensions to infect them with phage. […] The plaques that appeared were counted and the titer was calculated (Scheme 3).

A short description of data set [3]: State of streptavidin bead reaction solution during enzymatic reaction. It counts as physicochemical. The following applies: 0.6 M additive; extended / three hours restriction enzyme reaction. The source says:
Thus, with no nonuniformity in enzymatic activity, the various enzymatic reactions were promoted and the quantity of target DNA recovered increased.
This was attributed to characteristics such as the viscosity and diffusing effect of trehalose or sorbitol.

The subject of data set [4] is enzyme reaction solution in a Genome Analyzer system. Briefly: Sequencing reaction in a Solexa sequencing system (Genome Analyzer), PhiX control. It is filed as biochemical. The following applies: trehalose 0.15 M, 0.3 M. As for the experimental part:
D(+)-trehalose was added to the enzyme reaction solution in a Genome Analyzer system (GAI) and the results were measured. The experiment was conducted with the three D(+)-trehalose final concentrations of 0.15 M, 0.3 M, and 0.51 M. The ratio of the reduction in the average value obtained by dividing the fluorescence intensity calculated for each cycle by the number of clusters was employed for comparison.
The D(+)-trehalose employed was D(+)-trehalose (90208 BioChemika, ≧99.5% (HPLC) (Fluka). A 36-cycle Illumina Sequencing Kit (FC-204-2036) was employed for sequencing with a Genome Analyzer (Illumina). The sample employed was PhiX control (CT-901-1001).
The IMX36 (42 mL) in box 2 of the SBS Kit contained in the 36-Cycle SBS Reagent Kit v2 (IIlumina catalog #FC-204-2036) was melted, after which D(+)-trehalose was added in the quantities indicated in Table 3.
Following the addition, the mixture was shielded from light and gently mixed with top to bottom inversion for 10 minutes at room temperature. Once the dissolution had been visually confirmed, the mixture was passed through a filter (with a filter pore system of 0.22 micrometers). Precisely the required 42 mL was collected from the mixed solution following filtration. Subsequently, the operations specified in the manufacturer's protocol were conducted.

Where only a bound is given, the exact number is not on record here.

As to `OC[C@H]1O[C@H](O[C@H]2O[C@H](CO)[C@@H](O)[C@H](O)[C@H]2O)[C@H](O)[C@@H](O)[C@@H]1O` [trehalose, D(+)-trehalose], the “double-stranded cDNA synthesis rate, increase over trehalose (−) conditions” value in data set [1] turned out to be 1.25 fold. In addition, in data set [2], the “titer of the phage library” value is recorded as “clearly better results”. Further, the “uniformity of beads in the reaction solution” value in data set [3] is listed as “maintaining better uniformity in the reaction solution”. Moreover, in data set [4] (35th cycle, 0.51 M, PhiX control), the “difference in rate of reduction in fluorescence intensity, trehalose (+) vs trehalose (−)” value is reported as at least 20%. The “PhiX control mapping rate” value in data set [4] (0.51 M relative to trehalose (−)) is “overall significant difference”.
